The source of these data is patent publication US11479604B2, “Immunomodulatory peptides and methods for modulating the immune system in a subject” (Recepta Biopharma S.A., priority 2017, dated 2022).

The test system of experiment [1] is T lymphocytes of lungs, spleen and lymph nodes. In words: Flow cytometry of Treg, T-CD4+ and T-CD8+ cells after prophylactic DC protocol. In kind it is in vivo, mice. The protocol: On day 14, mice were inoculated i.v. with B16F10.Nex2 melanoma tumor cells and on day 29, lungs, spleen and cervical and axillary lymph nodes were examined for CD3+ cells, and the proportion of T-CD4+ and T-CD8+ cells.
The lungs were incubated with 2 mg/ml of collagenase for 40 min at 37° C. before maceration. The cell suspension was incubated with cold hemolytic buffer for 1 min and then centrifuged. The pellet was suspended with RPMI medium and counted. 1×10^6 Cells of each group were processed and stained using the Treg Detection Kit (Miltenyi Biotec, Cambridge, USA). Lymphocytes were characterized using anti-CD4 (FITC), anti-CD25 (PE) and anti-Foxp3 (APC). Samples were analyzed by flow cytometry using FACSCantoII (Becton Dickinson, San Jose, Calif., USA). Acquired data were analyzed using the FlowJo V10 (TreeStar Inc., Ashland, Oreg., USA). The percentages of Foxp3^+ in CD4^+CD25^+ lymphocytes are indicated.
The cell suspension was incubated with cold hemolytic buffer for 1 min and then centrifuged. The pellet was suspended with RPMI medium and counted. 1×10^6 Cells of each group were stained with anti-CD3 (PE) and anti-CD4 (FITC) or anti-CD3 (PE) and anti-CD8 (FITC). All antibodies used were purchase from Miltenyi Biotec, Cambridge, USA. Samples were analyzed by flow cytometry using FACSCantoII (Becton Dickinson, San Jose, Calif., USA). Acquired data were analyzed using the FlowJo V10 (TreeStar Inc., Ashland, Oreg., USA). The percentages of CD4^+ or CD8^+ in CD3^+ lymphocytes are indicated.

Experiment [2] relates to Myeloid DCs stimulated with recombinant mouse MIF. In words: Western blotting of MIF signalling in dendritic cells pre-treated with peptide. In kind it is cell-based. Here is the method: Protein lysates were separated by electrophoresis, and immunoblotting analyses were performed for: total AKT, total p44/42 MAPK (ERK1/2), total IKKα, total IkBα, total NF-kB p65, phospho-AKT (Ser473), phospho-ERK1/2 (Thr202/Tyr204), phospho-IKKα/β (Ser176/180), phospho-IkBα (Ser32) and phospho-NFkB p65 (Ser536). GAPDH was assayed for loading control. HRP-conjugated secondary antibodies were used, followed by incubation with the ECL substrate (Millipore, Billerica, Mass.). All primary and secondary antibodies were purchased from Cell Signaling Technologies (Beverly, Mass., USA). Anti-CD74 receptor was also assayed (Abcam, Cambridge, UK). Phosphorylation ratios were quantified using ImageJ software. Results are represented in arbitrary units normalized to untreated control lanes.
Early incubation with MIF increased p-Akt (Ser473). […] MIF also triggered p-ERK1/2 formation in DCs.
On the technique in general: In western blotting, separated proteins are transferred to a membrane and probed.

A further experiment has as its system B16F10-Nex2 cells. In words: Anti-melanoma antibodies in sera of treated mice. The conditions noted are these: 1/5 diluted sera; BSA treated or untreated tumor cells. The format is in vivo.
The subject of experiment [3] is mo-DC obtained from cancer patients' monocytes. In words: Surface phenotype of mo-DC from cancer patients. In kind it is cell-based, human. The protocol:
Peripheral blood mononuclear cells (PBMCs) were isolated by centrifugation over Ficoll-Paque Plus (GE Healthcare). After a 2 h-incubation in plastic 6-well plates, non-adherent cells were removed from culture and adherent cells (monocytes) were cultivated for 7 days in RPMI-1640 culture medium (Gibco, Grand Island, N.Y., USA), supplemented with 10% FCS (Gibco) plus antibiotic-antimycotic (Gibco) and in the presence of GM-CSF (50 ng/ml—Peprotech, Mexico) and IL-4 (50 ng/ml—Peprotech). At day 5 of culture TNF-α (50 ng/ml; Peprotech, Mexico) was added for mo-DC maturation.
Human cells were analyzed in a similar manner, but staining was performed in BSA-PBS, without EDTA. Antibodies against CD11c, CD14, CD80, CD83, CD86, HLA-ABC, HLA-DR, CCR7, PD-L1, conjugated with different fluorochromes and live/dead labeling (Molecular Probes, Oregon, USA) were used. Acquisition was performed in a FACSCanto II analyzer (BD Biosciences) and analyzed with the FlowJo Software X.10.07r2 (Tree Star).
Since it is well known that mo-DC from cancer patients can be functionally biased, but are not always so, the patients were separated into two groups, according to their mo-DC ability to induce allogeneic T cell proliferation. Patients whose mo-DC induced less than 35% of the phytohemagglutinin A (PHA)-induced response constituted one group (“defective”) and those whose mo-DC induced a response higher than 35% of the PHA response, the other (“normal”).

The test system of experiment [4] is CD11c+, MHC II+ bone marrow DCs. In words: Marker expression of bone marrow DCs with or without Poly I:C (flow cytometry). The format is cell-based, C57Bl6 mice. The conditions noted are these: 60 h. Here is the method:
DCs were obtained from the bone marrow of 6 to 8-week-old C57Bl6 mice. Briefly, femora and tibiae from mice were removed and stripped of muscles and tendons; both bone ends were cut and bone marrow was flushed out with RPMI 1640 medium using a 21-gauge needle and syringe. Cell clusters were dissociated by passing through a cell strainer and 0.45 M ammonium chloride was added for red cell lysis. After washing the cell suspension twice in RPMI 1640, 10×10^6 bone marrow cells per well were cultured in non-treated tissue-culture 6-well plates with 4 ml of complete medium (RPMI 1640 supplemented with 2 mM glutamine, 10,000 U/mL penicillin, 10 mg/mL streptomycin, 50 μM 2-mercaptoethanol, 10% heat-inactivated fetal calf serum with GM-CSF (50 ng/ml). Half of the medium was removed on day 2 and new medium supplemented with GM-CSF (100 ng/ml) and warmed at 37° C. was added. The culture medium was entirely discarded on day 3 and replaced by fresh warmed medium with GM-CSF (50 ng/ml). On day 6, non-adherent cells in the culture supernatant and loosely adherent cells harvested by gentle washing with PBS were pooled and used as the starting cell source for the experiments.
For murine cell analysis, these were stained in ice-cold PBS containing BSA (0.5%) and EDTA (2 mM) using appropriate antibody-fluorophore conjugates. Multiparameter analysis was performed on a BD FACSCanto II analyzer (BD Biosciences) and analyzed with FlowJo software (Tree Star). The following antibodies were used: anti-MHC Class II, anti-CD11c, anti-CD8a, anti-CD3e, anti-CD4, anti-CD86, anti-CD40, anti-CD80, Prior to acquisition, cells were resuspended in PBS/BSA 0.5%/EDTA (2 mM).
DCs were centrifuged and washed once with MACS buffer. Cells (10^6) were resuspended in 45 μl of buffer and 5 μl of antibodies/fluorophore, CD11c APC, MHC II PE, CD80 FITC, CD86 VioBlue and CD40 PE. The samples were acquired in BD FACS Canto II using the FacsDiva software. The data were analyzed by using the FlowJo software.

The mark [5] stands for this setting: prophylactic protocol with peptide-stimulated DCs.
Where [6] appears, read: 100 μg/ml peptide + 12.5 μg/ml Poly I:C.

Entries after “also recorded” stand apart in the source; their conditions may differ.

As to [CARGETARATFAYWGQGC], NH2 (C-C) [Rb9], in experiment [1] (setting [5]), the “T-CD4+ and T-CD8+ effector cells” value was “increased T-CD4+ and T-CD8+ effector cells”; the “Tregs (FoxP3+)” value is on record as “reduced Tregs”. Moreover, the “proportion of T-CD8+ to T-CD4+ cells” value in experiment [1] (spleen and lymph nodes (except lungs), day 29, DCs stimulated by peptide) is “T-CD8+ cells greatly predominated over T-CD4+ effector cells”. Besides, the ERK1/2 phosphorylation entry in experiment [2] (DCs pre-incubated with peptide 6 h, then rMIF) is “reduced p-ERK1/2”. For the same substance, the “Akt phosphorylation (Ser473)” value in experiment [2] (DCs pre-incubated with peptide 6 h, then rMIF, early (2 min), vs rMIF alone) is “Phosphorylation increased even more”. The “NFkB p65 phosphorylation (Ser536)” value in experiment [2] (DCs pre-stimulated 6 h, then recombinant-MIF, 5, 10 and 20 min) is listed as “tended to attenuate the MIF response; also recorded: decreased intracellular NFkB p65 phosphorylation”. For the same substance, the “phosphorylation of IKKαβ and IkBα” value in experiment [2] (DCs pre-stimulated 6 h, then recombinant-MIF, short incubation) is “tended to attenuate the MIF response; also recorded: decreased IKKαβ and IkBα”. Further, in the experiment on B16F10-Nex2 cells, the “reactivity of sera with B16F10-Nex2 cells, i.d. relative to i.p. administration” value was 4-5 times. Further, the “effects on surface phenotype of cancer patients' mo-DC” value in experiment [3] (all patients) is “heterogeneous”. Further, the “effect on phenotype (differentiation, maturation) of "defective" mo-DC” value in experiment [3] (patients whose mo-DC induced less than 35% of the PHA-induced response) is reported as “clearly affected the phenotype”. The “effect on phenotype of "normal" mo-DC” value in experiment [3] (patients whose mo-DC induced more than 35% of the PHA response) is given as “little effect”. Besides, in experiment [4] (setting [6]), the “CD40 expression over Poly I:C” value was “stimulated CD40 over Poly I:C much like Rb9” and the “CD86 expression over Poly I:C” value was “stimulated CD86 over Poly I:C”. Besides, the “expression of CD80” value in experiment [4] (100 μg/ml peptide, with or without Poly I:C) is on record as “similar”.
